Measurements as given in the supplement of paper PMC11061612.

Experiments:
Assay in all cases: Bliss excess, mean over the matrix (fraction); higher = more synergy
[1] = tested on: SUP-T1 (T-Lymphoblastic Leukemia)
Procedure, shortened: (§1)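 Bliss excess equals the observed combination effect minus the expected value EA + EB − EA·EB, where EA and EB are the effects of each agent alone. Combination Emax is the second-highest inhibition within the matrix. Inhibition was scaled from CellTiter-Glo 2.0 luminescence, with 0 set by vehicle wells and 1 by blank wells, after 72 hours of two-drug dosing of cells plated in 1536-well plates.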

Mewo (Melanoma) = tested on: Mewo (Melanoma)
Procedure, shortened: as §1

[2] = tested on: NCI-H747 (Colorectal Carcinoma)
Procedure, shortened: as §1

[3] = tested on: CTB-1 (B-Cell Non-Hodgkin's Lymphoma)
Procedure, shortened: as §1

[4] = tested on: MDA-MB-468 (Breast Carcinoma)
Procedure, shortened: as §1

[5] = tested on: PCI-30 (Head and Neck Carcinoma)
Procedure, shortened: as §1

NCI-H2461 (Mesothelioma) = tested on: NCI-H2461 (Mesothelioma)
Procedure, shortened: as §1

[6] = tested on: MHH-PREB-1 (B-Cell Non-Hodgkin's Lymphoma)
Procedure, shortened: as §1

[7] = tested on: 8305C (Thyroid Gland Carcinoma)
Procedure, shortened: as §1

[8] = tested on: HDLM-2 (Hodgkin's Lymphoma)
Procedure, shortened: as §1

[9] = tested on: LU-139 (Small Cell Lung Carcinoma)
Procedure, shortened: as §1

[10] = tested on: SU-DHL-6 (B-Cell Non-Hodgkin's Lymphoma)
Procedure, shortened: as §1

[11] = tested on: OVCAR-8 (Ovarian Carcinoma)
Procedure, shortened: as §1

[12] = tested on: CAL-51 (Breast Carcinoma)
Procedure, shortened: as §1

[13] = tested on: UMC-11 (Other Solid Carcinomas)
Procedure, shortened: as §1

[14] = tested on: 639-V (Bladder Carcinoma)
Procedure, shortened: as §1

[15] = tested on: EN (Endometrial Carcinoma)
Procedure, shortened: as §1

[16] = tested on: RPMI-6666 (Non-Cancerous)
Procedure, shortened: as §1

NCI-H28 (Mesothelioma) = tested on: NCI-H28 (Mesothelioma)
Procedure, shortened: as §1

[17] = tested on: LoVo (Colorectal Carcinoma)
Procedure, shortened: as §1

| Structure (SMILES) | Bliss excess [1] | Bliss excess (Mewo (Melanoma)) | Bliss excess [2] | Bliss excess [3] | Bliss excess [4] | Bliss excess [5] | Bliss excess (NCI-H2461 (Mesothelioma)) | Bliss excess [6] | Bliss excess [7] | Bliss excess [8] | Bliss excess [9] | Bliss excess [10] | Bliss excess [11] | Bliss excess [12] | Bliss excess [13] | Bliss excess [14] | Bliss excess [15] | Bliss excess [16] | Bliss excess (NCI-H28 (Mesothelioma)) | Bliss excess [17] |
| --- | --- | --- | --- | --- | --- | --- | --- | --- | --- | --- | --- | --- | --- | --- | --- | --- | --- | --- | --- | --- |
| CN(C)CCCOc1ccc(-c2ccc3ncc4c(c3c2)n(C2CCOCC2)c(=O)n4C)cn1 [AZD0156] + C[C@@H]1COCCN1C2=NC(=NC(=C2)C3(CC3)[S@](=N)(=O)C)C4=C5C=CNC5=NC=C4 [AZD6738] (first compound max 1 µM, 7x7, partner max 10 µM) | -0.0344 | -0.0365 | -0.0103 | -0.063 | -0.011 | 0.0081 | -0.0664 | 0.0147 | -0.0765 | -0.0448 | -0.0323 | 0.0136 | 0.0296 | 0.0198 | -0.0176 | 0.0109 | -0.0073 | -0.0187 | -0.0606 | -0.0191 |
| C=CCn1c(=O)c2cnc(Nc3ccc(N4CCN(C)CC4)cc3)nc2n1-c1cccc(C(C)(C)O)n1 [AZD1775] + O=C(c1cc(Cc2n[nH]c(=O)c3ccccc23)ccc1F)N1CCN(C(=O)C2CC2)CC1 [Olaparib] (first compound max 1 µM, partner max 10 µM) | -0.017 | -0.0237 | 0.0175 | -0.0921 | -0.0449 | -0.0579 | -0.0561 | -0.0311 | -0.0762 | -0.0536 | -0.0775 | -0.0222 | -0.0303 | -0.0122 | 0.0135 | 0.0085 | -0.0469 | -0.0373 | -0.0568 | -0.0313 |
| CCN(CCO)CCCOc1ccc2c(Nc3cc(CC(=O)Nc4cccc(F)c4)[nH]n3)ncnc2c1 [AZD2811] + C=CCn1c(=O)c2cnc(Nc3ccc(N4CCN(C)CC4)cc3)nc2n1-c1cccc(C(C)(C)O)n1 [AZD1775] (first compound max 1 µM, partner max 1 µM) | 0.0302 | -0.011 | -0.0538 | 0.0011 | 0.0205 | 0.0191 | -0.0679 | -0.0254 | -0.0355 | 0.0252 | -0.0426 | 0.0537 | 0.0213 | 0.0511 | 0.0014 | 0.0509 | -0.0426 | -0.0271 | -0.0541 | -0.0731 |
| CCN(CCO)CCCOc1ccc2c(Nc3cc(CC(=O)Nc4cccc(F)c4)[nH]n3)ncnc2c1 [AZD2811] + C[C@@H]1COCCN1C2=NC(=NC(=C2)C3(CC3)[S@](=N)(=O)C)C4=C5C=CNC5=NC=C4 [AZD6738] (first compound max 1 µM, 7x7, partner max 10 µM) | -0.0291 | -0.0399 | -0.044 | -0.0826 | -0.0977 | -0.0516 | -0.0728 | -0.0608 | -0.0872 | -0.0357 | -0.108 | 0.0131 | -0.0192 | 0.0075 | -0.0488 | -0.0164 | -0.0866 | -0.0653 | -0.0554 | -0.104 |
| CCN(CCO)CCCOc1ccc2c(Nc3cc(CC(=O)Nc4cccc(F)c4)[nH]n3)ncnc2c1 [AZD2811] + O=C(c1cc(Cc2n[nH]c(=O)c3ccccc23)ccc1F)N1CCN(C(=O)C2CC2)CC1 [Olaparib] (first compound max 1 µM, 7x7, partner max 10 µM) | 0.0208 | -0.0112 | 0.03 | -0.0508 | 0.0541 | -0.031 | -0.0638 | 0.0032 | -0.0398 | -0.0224 | -0.0495 | 0.0252 | 0.0244 | 0.0272 | -0.0715 | 0.0445 | -0.0657 | -0.0615 | -0.0383 | -0.0452 |
| CN(CCO)CC[C@H](CSc1ccccc1)Nc1ccc(S(=O)(=O)NC(=O)c2ccc(N3CCC([C@@H](O)c4ccccc4-c4ccc(Cl)cc4)CC3)cc2)cc1S(=O)(=O)C(F)(F)F [AZD4320] + C1CN(CCC1(C(=O)N[C@@H](CCO)C2=CC=C(C=C2)Cl)N)C3=NC=NC4=C3C=CN4 [Capivasertib] (first compound max 1 µM, 7x7, partner max 3 µM) | -0.0639 | -0.0262 | -0.0682 | -0.0277 | -0.0528 | -0.0402 | -0.0564 | -0.029 | -0.0663 | -0.0284 | -0.0328 | 0.0292 | -0.0468 | -0.0089 | -0.0908 | -0.0503 | -0.0343 | 0.0083 | -0.0821 | -0.071 |
| CN(CCO)CC[C@H](CSc1ccccc1)Nc1ccc(S(=O)(=O)NC(=O)c2ccc(N3CCC([C@@H](O)c4ccccc4-c4ccc(Cl)cc4)CC3)cc2)cc1S(=O)(=O)C(F)(F)F [AZD4320] + C=CCn1c(=O)c2cnc(Nc3ccc(N4CCN(C)CC4)cc3)nc2n1-c1cccc(C(C)(C)O)n1 [AZD1775] (first compound max 1 µM, partner max 1 µM) | 0.0212 | 0.0306 | -0.0238 | -0.0309 | 0.032 | 0.0013 | 0.016 | -0.0454 | -0.0178 | 0.106 | 0.0145 | 0.14 | -0.012 | -0.0122 | -0.0122 | -0.0437 | -0.0337 | 0.0219 | 0.0115 | 0.0093 |
| CN(CCO)CC[C@H](CSc1ccccc1)Nc1ccc(S(=O)(=O)NC(=O)c2ccc(N3CCC([C@@H](O)c4ccccc4-c4ccc(Cl)cc4)CC3)cc2)cc1S(=O)(=O)C(F)(F)F [AZD4320] + CCN(CCO)CCCOc1ccc2c(Nc3cc(CC(=O)Nc4cccc(F)c4)[nH]n3)ncnc2c1 [AZD2811] (first compound max 1 µM, 7x7, partner max 1 µM) | 0.0933 | 0.0053 | -0.0558 | -0.0596 | 0.0461 | -0.0085 | -0.0195 | 0.0034 | 0.0076 | 0.0781 | 0.0775 | 0.0635 | 0.028 | 0.0881 | -0.0565 | 0.0502 | -0.0073 | 0.17 | -0.0045 | -0.0278 |
| CN(CCO)CC[C@H](CSc1ccccc1)Nc1ccc(S(=O)(=O)NC(=O)c2ccc(N3CCC([C@@H](O)c4ccccc4-c4ccc(Cl)cc4)CC3)cc2)cc1S(=O)(=O)C(F)(F)F [AZD4320] + C[C@@H]1COCCN1C2=NC(=NC(=C2)C3(CC3)[S@](=N)(=O)C)C4=C5C=CNC5=NC=C4 [AZD6738] (first compound max 1 µM, 7x7, partner max 10 µM) | -0.0356 | -0.0275 | -0.0649 | -0.0791 | 0.0161 | -0.0223 | -0.0341 | -0.039 | -0.004 | -0.0171 | -0.0613 | -0.0311 | -0.0222 | -0.0316 | -0.028 | -0.0022 | -0.056 | -0.0271 | -0.0284 | -0.0355 |
| CN(CCO)CC[C@H](CSc1ccccc1)Nc1ccc(S(=O)(=O)NC(=O)c2ccc(N3CCC([C@@H](O)c4ccccc4-c4ccc(Cl)cc4)CC3)cc2)cc1S(=O)(=O)C(F)(F)F [AZD4320] + Cc1cc2ncnn2cc1Nc1ncc2c(n1)n(C1CCOCC1)c(=O)n2C [AZD7648] (first compound max 1 µM, 7x7, partner max 10 µM) | -0.0222 | -0.0104 | -0.0192 | -0.0401 | -0.0012 | -0.057 | -0.0484 | -0.0041 | 0.0242 | -0.0018 | 0.0151 | -0.0099 | -0.049 | -0.0064 | 0.0377 | -0.0244 | -0.01 | 0.0311 | -0.055 | 0.0195 |
| CN(CCO)CC[C@H](CSc1ccccc1)Nc1ccc(S(=O)(=O)NC(=O)c2ccc(N3CCC([C@@H](O)c4ccccc4-c4ccc(Cl)cc4)CC3)cc2)cc1S(=O)(=O)C(F)(F)F [AZD4320] + Cn1cnc2c(F)c(Nc3ccc(Br)cc3Cl)c(C(=O)NOCCO)cc21 [Selumetinib] (first compound max 1 µM, 7x7, partner max 3 µM) | -0.0462 | 0.0374 | -0.0306 | -0.0849 | -0.0301 | 0.0023 | 0.0248 | 0.0272 | 0.097 | 0.0231 | -0.006 | -0.0145 | 0.0974 | 0.0502 | -0.0068 | 0.22 | -0.0088 | -0.0047 | 0.0103 | 0.0195 |
| Cc1c2c(nn1C)CSCc1cc(n(C)n1)CSc1cc(c3ccccc3c1)OCCCc1c(C(=O)O)n(C)c3c-2c(Cl)ccc13 [AZD5991] + C1CN(CCC1(C(=O)N[C@@H](CCO)C2=CC=C(C=C2)Cl)N)C3=NC=NC4=C3C=CN4 [Capivasertib] (first compound max 1 µM, 7x7, partner max 3 µM) | -0.0218 | -0.0536 | 0.0106 | -0.0048 | 0.0256 | 0.0204 | -0.0345 | -0.0283 | 0.0008 | 0.0369 | -0.0056 | -0.0035 | 0 | 0.0392 | 0.0253 | -0.0036 | -0.0547 | 0.0216 | -0.0315 | -0.069 |
| Cc1c2c(nn1C)CSCc1cc(n(C)n1)CSc1cc(c3ccccc3c1)OCCCc1c(C(=O)O)n(C)c3c-2c(Cl)ccc13 [AZD5991] + C=CCn1c(=O)c2cnc(Nc3ccc(N4CCN(C)CC4)cc3)nc2n1-c1cccc(C(C)(C)O)n1 [AZD1775] (first compound max 1 µM, partner max 1 µM) | 0.0028 | -0.0347 | -0.0103 | -0.0417 | -0.0956 | 0.0371 | 0.0081 | 0.0023 | -0.0065 | 0.0055 | -0.0421 | -0.0152 | -0.0075 | 0.045 | -0.0732 | 0.0854 | -0.0038 | 0.0122 | -0.0023 | -0.064 |
